From patent US20260262643A1, “HERBICIDAL BENZOXAZINES” (FMC CORPORATION, priority 2022, published 2026)

How the values were obtained:
foxtail, giant [1] = experiment: Test A preemergence; type: in vivo, Setaria faberi
How it was run: (§1)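 Visual injury ratings on a 0–100 scale (100 = complete control) versus untreated controls, taken 10 days after treatment in greenhouse. Preemergence: directed soil spray onto seeded loam/sand. Postemergence: foliar application at one- to two-leaf stage, plants 2–10 cm. Formulation: non-phytotoxic solvent plus surfactant.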

ryegrass, Italian [2] = experiment: Test A preemergence; type: in vivo, Lolium multiflorum
How it was run: as §1

corn [3] = experiment: Test A preemergence; type: in vivo, Zea mays
How it was run: as §1

corn [4] = experiment: Test A postemergence; type: in vivo, Zea mays; details: postemergence, 10 days; for Plant response rating, Corn: visual injury, 0 to 100 scale (0 no effect, 100 complete control)
How it was run: as §1

oat, wild [5] = experiment: Test A postemergence; type: in vivo, Avena fatua; details: postemergence, 10 days; for Plant response rating, Oat, Wild: 500 g ai/ha, visual injury, 0 to 100 scale (0 no effect, 100 complete control)
How it was run: as §1

ragweed [6] = experiment: Test A postemergence; type: in vivo, Ambrosia artemisiifolia; details: postemergence, 10 days; for Plant response rating, Ragweed: 500 g ai/ha, visual injury, 0 to 100 scale (0 no effect, 100 complete control)
How it was run: as §1

goosegrass [7] = experiment: Test A preemergence; type: in vivo, Eleusine indica
How it was run: as §1

wheat [8] = experiment: Test A postemergence; type: in vivo, Triticum aestivum; details: postemergence, 10 days; for Plant response rating, Wheat: 500 g ai/ha, visual injury, 0 to 100 scale (0 no effect, 100 complete control)
How it was run: as §1

ducksalad = experiment: Test B flooded paddy test; type: in vivo, Heteranthera limosa; details: 250 g ai/ha, Flood, 13 days, 0 to 100 scale (0 no effect, 100 complete control)
How it was run: (§2)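 Application into standing water (3 cm above soil) at the two-leaf stage; flood depth held constant. Evaluation: day 13, visual comparison with controls, 0 = no injury, 100 = complete control.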

ragweed [9] = experiment: Test A preemergence; type: in vivo, Ambrosia artemisiifolia
How it was run: as §1

barnyardgrass = experiment: Test B flooded paddy test; type: in vivo, Echinochloa crus-galli; details: 250 g ai/ha, Flood, 13 days, 0 to 100 scale (0 no effect, 100 complete control)
How it was run: as §2

soybean [10] = experiment: Test A preemergence; type: in vivo, Glycine max
How it was run: as §1

rice = experiment: Test B flooded paddy test; type: in vivo, Oryza sativa; details: 250 g ai/ha, Flood, 13 days, 0 to 100 scale (0 no effect, 100 complete control)
How it was run: as §2

blackgrass [11] = experiment: Test A postemergence; type: in vivo, Alopecurus myosuroides
How it was run: as §1

goosegrass [12] = experiment: Test A postemergence; type: in vivo, Eleusine indica; details: postemergence, 10 days; for Plant response rating, Goosegrass: visual injury, 0 to 100 scale (0 no effect, 100 complete control)
How it was run: as §1

sedge, umbrella = experiment: Test B flooded paddy test; type: in vivo, Cyperus difformis; details: 250 g ai/ha, Flood, 13 days, 0 to 100 scale (0 no effect, 100 complete control)
How it was run: as §2

horseweed = experiment: Test A postemergence; type: in vivo, Erigeron canadensis; details: postemergence, 10 days; for Plant response rating, Horseweed: visual injury, 0 to 100 scale (0 no effect, 100 complete control)
How it was run: as §1

foxtail, giant [13] = experiment: Test A postemergence; type: in vivo, Setaria faberi; details: postemergence, 10 days; for Plant response rating, Foxtail, Giant: visual injury, 0 to 100 scale (0 no effect, 100 complete control)
How it was run: as §1

kochia [14] = experiment: Test A preemergence; type: in vivo, Bassia scoparia
How it was run: as §1

oat, wild [15] = experiment: Test A preemergence; type: in vivo, Avena fatua
How it was run: as §1

blackgrass [16] = experiment: Test A preemergence; type: in vivo, Alopecurus myosuroides
How it was run: as §1

pigweed, palmer [17] = experiment: Test A preemergence; type: in vivo, Amaranthus palmeri
How it was run: as §1

galium = experiment: Test A postemergence; type: in vivo, Galium aparine; details: postemergence, 10 days; for Plant response rating, Galium: visual injury, 0 to 100 scale (0 no effect, 100 complete control)
How it was run: as §1

wheat [18] = experiment: Test A preemergence; type: in vivo, Triticum aestivum
How it was run: as §1

pigweed, palmer [19] = experiment: Test A postemergence; type: in vivo, Amaranthus palmeri; details: postemergence, 10 days; for Plant response rating, Pigweed, Palmer: 500 g ai/ha, visual injury, 0 to 100 scale (0 no effect, 100 complete control)
How it was run: as §1

kochia [20] = experiment: Test A postemergence; type: in vivo, Bassia scoparia; details: postemergence, 10 days; for Plant response rating, Kochia: visual injury, 0 to 100 scale (0 no effect, 100 complete control)
How it was run: as §1

ryegrass, Italian [21] = experiment: Test A postemergence; type: in vivo, Lolium multiflorum; details: postemergence, 10 days; for Plant response rating, Ryegrass, Italian: 500 g ai/ha, visual injury, 0 to 100 scale (0 no effect, 100 complete control)
How it was run: as §1

soybean [22] = experiment: Test A postemergence; type: in vivo, Glycine max; details: postemergence, 10 days; for Plant response rating, Soybean: 500 g ai/ha, visual injury, 0 to 100 scale (0 no effect, 100 complete control)
How it was run: as §1

[23] = 125 g ai/ha, visual injury after 10 days, 0 to 100 scale, 0 is no effect, 100 is complete control
[24] = 500 g ai/ha, 0 to 100 scale (0 no effect, 100 complete control), 10 days
[25] = 125 g ai/ha, 0 to 100 scale, 0 no effect, 100 complete control

CC(C)c1ncn(-c2ccc(O)c(C(=O)N3C[C@H](C)Oc4c(Cl)cccc43)c2)n1 [Compound 105]
80: Plant response rating, Ryegrass, Italian (ryegrass, Italian [2]; [24]) | Plant response rating, Foxtail, Giant (foxtail, giant [13]; 500 g ai/ha)
100: Plant response rating, Foxtail, Giant (foxtail, giant [1]; [24]) | Plant response rating, Goosegrass (goosegrass [7]; [24]) | Plant response rating, Soybean (soybean [22])
50: Plant response rating, Corn (corn [4]; 500 g ai/ha) | Plant response rating, Goosegrass (goosegrass [12]; 500 g ai/ha) | Plant response rating, Kochia (kochia [14]; [23])
70: Plant response rating, Foxtail, Giant (foxtail, giant [1]; [23]) | Oat, Wild plant response rating (oat, wild [5]; [25]) | Plant response rating, Oat, Wild (oat, wild [5]) | Plant response rating, Oat, Wild (oat, wild [15]; [23]) | Plant response rating, Oat, Wild (oat, wild [15]; [24]) | Plant response rating, Galium (galium; 500 g ai/ha) | Soybean plant response rating (soybean [22]; [25])
20: Corn plant response rating (corn [4]; [25]) | Foxtail, Giant plant response rating (foxtail, giant [13]; [25]) | Plant response rating, Blackgrass (blackgrass [16]; [24]) | Plant response rating, Ryegrass, Italian (ryegrass, Italian [21])
30: Blackgrass plant response rating (blackgrass [11]; 125 g ai/ha, postemergence, 10 days, 0 to 100 scale, 0 no effect, 100 complete control) | Plant response rating, Blackgrass (blackgrass [11]; 500 g ai/ha, postemergence, 10 days, visual injury, 0 to 100 scale (0 no effect, 100 complete control)) | Plant response rating, Pigweed, Palmer (pigweed, palmer [17]; [23])
0: Plant response rating, Corn (corn [3]; [23]) | Plant response rating, Corn (corn [3]; [24]) | Ragweed plant response rating (ragweed [6]; [25]) | Plant response rating, Ragweed (ragweed [6]) | Wheat plant response rating (wheat [8]; [25]) | Plant response rating, Ducksalad (ducksalad) | Plant response rating, Ragweed (ragweed [9]; [23]) | Plant response rating, Ragweed (ragweed [9]; [24]) | Plant response rating, Barnyardgrass (barnyardgrass) | Plant response rating, Soybean (soybean [10]; [23]) | Plant response rating, Soybean (soybean [10]; [24]) | Plant response rating, Rice (rice) | Goosegrass plant response rating (goosegrass [12]; [25]) | Plant response rating, Sedge, Umbrella (sedge, umbrella) | Horseweed plant response rating (horseweed; [25]) | Plant response rating, Horseweed (horseweed; 500 g ai/ha) | Plant response rating, Wheat (wheat [18]; [23]) | Ryegrass, Italian plant response rating (ryegrass, Italian [21]; [25])
40: Plant response rating, Ryegrass, Italian (ryegrass, Italian [2]; [23]) | Pigweed, Palmer plant response rating (pigweed, palmer [19]; [25])
10: Plant response rating, Wheat (wheat [8]) | Plant response rating, Blackgrass (blackgrass [16]; [23]) | Plant response rating, Wheat (wheat [18]; [24])
90: Plant response rating, Kochia (kochia [14]; [24]) | Plant response rating, Pigweed, Palmer (pigweed, palmer [17]; [24]) | Kochia plant response rating (kochia [20]; [25]) | Plant response rating, Kochia (kochia [20]; 500 g ai/ha)
60: Plant response rating, Goosegrass (goosegrass [7]; [23]) | Galium plant response rating (galium; [25]) | Plant response rating, Pigweed, Palmer (pigweed, palmer [19])

Cc1cccc2c1O[C@@H](C)CN2C(=O)c1cccc(-n2cnc(C(F)(F)F)n2)c1 [Compound 66]
30: Plant response rating, Corn (corn [3]; [23]) | Plant response rating, Soybean (soybean [10]; [23]) | Plant response rating, Oat, Wild (oat, wild [15]; [23]) | Plant response rating, Pigweed, Palmer (pigweed, palmer [19]) | Plant response rating, Kochia (kochia [20]; 125 g ai/ha)
50: Plant response rating, Corn (corn [3]; [24]) | Plant response rating, Goosegrass (goosegrass [12]; 500 g ai/ha) | Plant response rating, Pigweed, Palmer (pigweed, palmer [17]; [23])
100: Plant response rating, Foxtail, Giant (foxtail, giant [1]; [24]) | Plant response rating, Ryegrass, Italian (ryegrass, Italian [2]; [23]) | Plant response rating, Ryegrass, Italian (ryegrass, Italian [2]; [24]) | Plant response rating, Goosegrass (goosegrass [7]; [23]) | Plant response rating, Goosegrass (goosegrass [7]; [24]) | Plant response rating, Pigweed, Palmer (pigweed, palmer [17]; [24]) | Plant response rating, Galium (galium; 500 g ai/ha) | Plant response rating, Soybean (soybean [22])
40: Plant response rating, Ragweed (ragweed [6]) | Plant response rating, Soybean (soybean [10]; [24])
20: Plant response rating, Wheat (wheat [8]) | Plant response rating, Foxtail, Giant (foxtail, giant [13]; 125 g ai/ha) | Plant response rating, Wheat (wheat [18]; [23])
90: Plant response rating, Foxtail, Giant (foxtail, giant [1]; [23]) | Plant response rating, Blackgrass (blackgrass [11]; 500 g ai/ha, Postemergence, 0 to 100 scale) | Plant response rating, Foxtail, Giant (foxtail, giant [13]; 500 g ai/ha) | Plant response rating, Kochia (kochia [14]; [24]) | Plant response rating, Oat, Wild (oat, wild [15]; [24]) | Plant response rating, Blackgrass (blackgrass [16]; [24])
70: Plant response rating, Corn (corn [4]; 500 g ai/ha) | Plant response rating, Oat, Wild (oat, wild [5]) | Plant response rating, Blackgrass (blackgrass [16]; [23]) | Plant response rating, Ryegrass, Italian (ryegrass, Italian [21])
60: Plant response rating, Blackgrass (blackgrass [11]; 125 g ai/ha, postemergence, 10 days, visual injury, 0 to 100 scale (0 no effect, 100 complete control))
0: Plant response rating, Corn (corn [4]; 125 g ai/ha) | Plant response rating, Ducksalad (ducksalad) | Plant response rating, Ragweed (ragweed [9]; [23]) | Plant response rating, Ragweed (ragweed [9]; [24]) | Plant response rating, Barnyardgrass (barnyardgrass) | Plant response rating, Rice (rice) | Plant response rating, Sedge, Umbrella (sedge, umbrella) | Plant response rating, Horseweed (horseweed; 125 g ai/ha) | Plant response rating, Horseweed (horseweed; 500 g ai/ha)
10: Plant response rating, Goosegrass (goosegrass [12]; 125 g ai/ha) | Plant response rating, Kochia (kochia [14]; [23])
80: Plant response rating, Galium (galium; 125 g ai/ha) | Plant response rating, Wheat (wheat [18]; [24]) | Plant response rating, Kochia (kochia [20]; 500 g ai/ha)
